Source: article PMC6582431 (Chemmedchem, 2018)

Key:
MAGL = target: T1, MAGL (Rattus norvegicus, UniProt Q8R431); test: MAGL activity in rat cerebellum cytosol; type: biochemical; conditions: for MAGL activity, percent of control / MAGL (100 μM), percent of control: C inhib=100 μM in rat cerebellum cytosol; for MAGL activity, percent of control: Table 2
T1 sequence (Q8R431 1-303): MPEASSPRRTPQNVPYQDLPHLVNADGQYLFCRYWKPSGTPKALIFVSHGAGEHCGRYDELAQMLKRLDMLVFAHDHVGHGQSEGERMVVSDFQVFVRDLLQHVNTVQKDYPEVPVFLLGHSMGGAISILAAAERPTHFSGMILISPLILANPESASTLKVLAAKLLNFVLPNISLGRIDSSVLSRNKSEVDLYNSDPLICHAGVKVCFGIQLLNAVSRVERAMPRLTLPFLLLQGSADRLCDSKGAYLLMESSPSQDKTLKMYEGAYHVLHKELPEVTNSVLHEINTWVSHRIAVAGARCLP

FAAH [1] = target: T2, FAAH (Rattus norvegicus, UniProt P97612); test: In vitro FAAH activity in rat brain homogenates/membranes; type: biochemical; conditions: for FAAH activity, percent of control, 10 nM / FAAH activity, percent of control, 100 nM: rat brain homogenates, 15 min pre-incubation
T2 sequence (P97612 1-579): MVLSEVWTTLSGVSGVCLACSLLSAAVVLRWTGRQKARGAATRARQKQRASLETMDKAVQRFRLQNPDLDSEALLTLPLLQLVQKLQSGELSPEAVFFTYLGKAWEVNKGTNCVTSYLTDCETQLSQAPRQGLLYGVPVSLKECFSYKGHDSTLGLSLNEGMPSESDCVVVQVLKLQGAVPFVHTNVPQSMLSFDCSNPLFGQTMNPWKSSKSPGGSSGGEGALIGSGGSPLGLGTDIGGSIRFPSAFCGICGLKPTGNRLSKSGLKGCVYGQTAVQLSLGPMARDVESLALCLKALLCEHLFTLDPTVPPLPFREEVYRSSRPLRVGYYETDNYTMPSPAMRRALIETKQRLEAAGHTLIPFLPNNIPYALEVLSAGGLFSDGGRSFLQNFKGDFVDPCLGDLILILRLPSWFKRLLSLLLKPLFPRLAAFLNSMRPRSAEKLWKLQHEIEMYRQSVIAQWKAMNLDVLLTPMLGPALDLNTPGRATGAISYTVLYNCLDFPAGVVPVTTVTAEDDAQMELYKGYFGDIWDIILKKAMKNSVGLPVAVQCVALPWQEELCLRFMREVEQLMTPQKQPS

carboxylesterases (CEs) = test: CE activity in rat liver microsomes; type: biochemical; conditions: for CEs (10 μM), percent of control: 10 μM in rat liver microsomes; for CEs activity, percent of control: C inhib=10 μM in rat liver microsomes, Table 2
FAAH [2] = target: T3, FAAH (Mus musculus, UniProt O08914); test: In vivo FAAH inhibition, liver, after oral administration to mice
T3 sequence (O08914 1-579): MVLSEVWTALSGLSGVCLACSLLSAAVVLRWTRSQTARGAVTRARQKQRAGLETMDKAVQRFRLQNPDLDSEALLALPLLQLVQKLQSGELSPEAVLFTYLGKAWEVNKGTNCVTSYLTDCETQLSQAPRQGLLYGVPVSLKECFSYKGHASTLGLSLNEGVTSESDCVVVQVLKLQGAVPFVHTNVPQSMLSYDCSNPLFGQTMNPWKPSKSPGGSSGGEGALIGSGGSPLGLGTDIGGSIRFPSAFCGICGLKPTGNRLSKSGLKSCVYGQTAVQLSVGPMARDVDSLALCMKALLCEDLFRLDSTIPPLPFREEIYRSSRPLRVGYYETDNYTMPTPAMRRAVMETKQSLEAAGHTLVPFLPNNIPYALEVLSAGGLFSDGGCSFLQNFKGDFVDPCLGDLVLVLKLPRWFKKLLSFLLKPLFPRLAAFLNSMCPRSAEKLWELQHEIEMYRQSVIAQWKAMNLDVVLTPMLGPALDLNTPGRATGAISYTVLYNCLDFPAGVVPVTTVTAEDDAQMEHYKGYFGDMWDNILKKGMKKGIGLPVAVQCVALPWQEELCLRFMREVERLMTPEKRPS

FAAH [3] = target: T3, FAAH; test: In vivo FAAH inhibition, brain, after oral administration to mice
[4] = 0.1 mg kg^−1 p.o. in mice, 8 h after administration, Table 4
[5] = 0.1 mg kg^−1 p.o., mice, post-dose
[6] = 30 mg kg^−1 p.o. in mice, 1 h after administration, Table 2
[7] = 30 mg kg^−1 p.o. in mice, 1 h after administration (footnote f), Table 5
[8] = 0.1 mg kg^−1 p.o. in mice, 8 h after administration, Table 5

Structure (SMILES) | MAGL activity, percent of control (MAGL) | FAAH activity, percent of control, 10 nM (FAAH [1]; Table 2) | FAAH activity, percent of control, 100 nM (FAAH [1]; Table 2) | CEs activity, percent of control (carboxylesterases (CEs)) | FAAH activity, percent of control, 100 nM (FAAH [1]; Table 5) | CEs (10 μM), percent of control (carboxylesterases (CEs); Table 5) | other results
O=C(Nc1cccnc1)N1CCC(Cc2cccc(Oc3ccc(C(F)(F)F)cn3)c2)CC1 [Compound 3, PF3845, reference compound] | 87±12% of control | 101±31% of control | 7±4% of control | 95±17% of control | – | – | MAGL (100 μM), percent of control (MAGL; Table 4): 87±12% of control; CEs (10 μM), percent of control (carboxylesterases (CEs); Table 4): 95±17% of control; Liver FAAH activity, percent of control (FAAH [2]; [4]): 7±4% of control; time of maximum inhibitory effect in the liver (FAAH [2]; [5]): 1 h; Liver FAAH activity, percent of control (FAAH [2]; [6]): 2±2% of control; inhibition at 30 mg/kg (FAAH [2]; mouse, po, read-out: FAAH inhibition in the liver): > 90%; Brain FAAH activity, percent of control (FAAH [3]; [4]): 5±1% of control; time of maximal inhibitory effect in the brain (t max) (FAAH [3]; [5]): 8 h; Brain FAAH activity, percent of control (FAAH [3]; [6]): 1±0% of control; FAAH inhibition in the brain (FAAH [3]; 30 mg kg^−1 p.o., mice, 1 h post-administration): over 90%
CN(C(=O)n1ccnc1)c1ccccc1 [Compound 8 a, N ‐Methyl‐N‐phenyl‐1H‐imidazole‐1‐carboxamide] | – | – | – | – | – | – | inhibition at 10 µM (FAAH [1]; read-out: FAAH inhibition): 88%
CN(C(=O)n1cnc(-c2ccccc2)c1)c1ccccc1 [Compound 8 b, N ‐Methyl‐N,4‐diphenyl‐1H‐imidazole‐1‐carboxamide] | – | – | – | – | 84±7% of control | 105±5% of control | Liver FAAH activity, percent of control (FAAH [2]; [7]): 11±5^[f] Percent of control; Brain FAAH activity, percent of control (FAAH [3]; [7]): 14±17^[f] Percent of control
CC1(C)COCN1C(=O)n1cnc(-c2ccccc2)c1 [Compound 8 f, (4,4‐Dimethyloxazolidin‐3‐yl)(4‐phenyl‐1H‐imidazol‐1‐yl)methanone] | – | – | – | – | 94±10% of control | 95±6% of control | MAGL (100 μM), percent of control (MAGL; Table 5): 92±3% of control; Liver FAAH activity, percent of control (FAAH [2]; [8]): 53±6% of control; Brain FAAH activity, percent of control (FAAH [3]; [8]): 92±7% of control
O=C(N1CCN(Cc2ccccc2)CC1)n1cnc(-c2ccccc2)c1 [Compound 8 g] | – | – | – | – | 1±0% of control | 52±2% of control | MAGL (100 μM), percent of control (MAGL; Table 5): 61±6% of control
CN(C(=O)n1cnc(-c2ccccc2)c1)C1CCOCC1 [Compound 8 i] | – | – | – | – | 104±18% of control | 96±7% of control | MAGL (100 μM), percent of control (MAGL; Table 5): 96±1% of control; Liver FAAH activity, percent of control (FAAH [2]; [8]): 12±4% of control; Brain FAAH activity, percent of control (FAAH [3]; [8]): 38±18% of control
CN(C(=O)n1cnc(-c2ccccc2)c1)C1CCCCC1 [Compound 8 j] | – | – | – | – | 37±3% of control | 90±11% of control | MAGL (100 μM), percent of control (MAGL; Table 5): 91±3% of control; Liver FAAH activity, percent of control (FAAH [2]; [8]): 33±2% of control; Brain FAAH activity, percent of control (FAAH [3]; [8]): 86±5% of control
CN(C(=O)n1cnc(-c2cccnc2)c1)C1CCCCC1 [Compound 8 k, N ‐Cyclohexyl‐N‐methyl‐4‐(pyridin‐3‐yl)‐1H‐imidazole‐1‐carboxamide] | – | – | – | – | 75±7% of control | 97±3% of control | MAGL (100 μM), percent of control (MAGL; Table 5): 94±4% of control; Liver FAAH activity, percent of control (FAAH [2]; [8]): 13±4% of control; Brain FAAH activity, percent of control (FAAH [3]; [8]): 75±16% of control
CN(C(=O)n1nnc2ccccc21)c1ccccc1 [Compound 10 a] | 73±4% of control | 42±12% of control | 1±0% of control | 31±2% of control | – | – | IC50 (MAGL): > 100000 nM; IC50 (FAAH [1]): 7 nM; IC50 (carboxylesterases (CEs); read-out: CE IC50, rat liver microsomes): > 1000 nM; Liver FAAH activity, percent of control (FAAH [2]; [6]): 34±5% of control; Brain FAAH activity, percent of control (FAAH [3]; [6]): 34±9% of control
CN(C(=O)n1nnc2ccccc21)c1ccc(F)cc1F [Compound 10 b, N ‐(2,4‐Difluorophenyl)‐N‐methyl‐1H‐benzo[d][1,2,3]triazole‐1‐carboxamide] | 70±6% of control | 35±3% of control | 2±1% of control | 40±1% of control | – | – | –
COc1cc(OC)cc(N(C)C(=O)n2nnc3ccccc32)c1 [Compound 10 c] | – | – | 76±0% of control | – | – | – | –
O=C(Nc1ccc(F)cc1F)n1nnc2ccccc21 [Compound 10 d, N ‐(2,4‐Difluorophenyl)‐1H‐benzo[d][1,2,3]triazole‐1‐carboxamide] | – | – | 100±5% of control | – | – | – | –
O=C(NCc1ccccc1)n1nnc2ccccc21 [Compound 10 e] | 4±1% of control | 13±1% of control | 2±1% of control | 67±4% of control | – | – | Liver FAAH activity, percent of control (FAAH [2]; [6]): 84±6% of control; Brain FAAH activity, percent of control (FAAH [3]; [6]): 87±7% of control
O=C(N1CCCCCCC1)n1nnc2ccccc21 [Compound 10 m] | 58±6% of control | 62±6% of control | 15±1% of control | 30±2% of control | – | – | –
C[C@@H]1CCC[C@H](C)N1C(=O)n1nnc2ccccc21 [Compound 10 n] | 35±5% of control | – | 71±7% of control | 28±1% of control | – | – | –
CC1(C)OCCN1C(=O)n1nnc2ccccc21 [Compound 10 o] | 84±25% of control | 71±2% of control | 17±3% of control | 60±7% of control | – | – | –
CC1(C)COCN1C(=O)n1nnc2cccnc21 [Compound 11 e] | – | – | – | – | – | – | MAGL (100 μM), percent of control (MAGL; Table 4): 72±5% of control; CEs (10 μM), percent of control (carboxylesterases (CEs); Table 4): 61±11% of control; Liver FAAH activity, percent of control (FAAH [2]; [4]): 14±7% of control; inhibition at 0.1 mg/kg (FAAH [2]; mouse, po, read-out: peripheral (liver) FAAH inhibition): > 85%; cerebral (brain) FAAH inhibition (FAAH [3]; 0.1 mg kg^−1, mouse, p.o., 8 h post-dose): over 85%; Brain FAAH activity, percent of control (FAAH [3]; [4]): 12±4% of control
